Active and inactive are the calls of the source. No cut-off for these calls is given here.
Experiments:
[1] = target: Transient receptor potential cation channel subfamily M member 8 (Homo sapiens, UniProt Q7Z2W7); experiment: Transients WS-12 activation
[2] = tested on: Tyrosine-protein kinase ABL1 (Homo sapiens), P00519 [Q252H]; details: Compound concentration 1000.0 nM
[3] = target: ALK tyrosine kinase receptor (Homo sapiens) (UniProt Q9UM73); details: Compound concentration 1000.0 nM
[4] = target: Ankyrin repeat and protein kinase domain-containing protein 1 (Homo sapiens) (UniProt Q8NFD2); details: Compound concentration 1000.0 nM
[5] = target: Aurora kinase C (Homo sapiens) (UniProt Q9UQB9); details: Compound concentration 1000.0 nM
[6] = target: Tyrosine-protein kinase Blk (Homo sapiens) (UniProt P51451); details: Compound concentration 1000.0 nM
[7] = target: Serine/threonine-protein kinase BRSK1 (Homo sapiens) (UniProt Q8TDC3); details: Compound concentration 1000.0 nM
[8] = target: Calcium/calmodulin-dependent protein kinase type II subunit beta (Homo sapiens) (UniProt Q13554); details: Compound concentration 1000.0 nM
[9] = target: Calcium/calmodulin-dependent protein kinase type II subunit delta (Homo sapiens) (UniProt Q13557); details: Compound concentration 1000.0 nM
[10] = target: Cyclin-dependent kinase 7 (Homo sapiens) (UniProt P50613); details: Compound concentration 1000.0 nM
[11] = target: Serine/threonine-protein kinase Chk2 (Homo sapiens) (UniProt O96017); details: Compound concentration 1000.0 nM
[12] = target: Serine/threonine-protein kinase/endoribonuclease IRE1 (Homo sapiens) (UniProt O75460); details: Compound concentration 1000.0 nM
[13] = target: Fibroblast growth factor receptor 1 (Homo sapiens) (UniProt P11362); details: Compound concentration 1000.0 nM
[14] = target: Fibroblast growth factor receptor 4 (Homo sapiens) (UniProt P22455); details: Compound concentration 1000.0 nM
[15] = tested on: Receptor-type tyrosine-protein kinase FLT3 (Homo sapiens), P36888 [D835V]; details: Compound concentration 1000.0 nM
[16] = target: Tyrosine-protein kinase JAK1 (Homo sapiens) (UniProt P23458); details: Compound concentration 1000.0 nM
[17] = target: Serine/threonine-protein kinase 10 (Homo sapiens) (UniProt O94804); details: Compound concentration 1000.0 nM
[18] = target: Mitogen-activated protein kinase kinase kinase 15 (Homo sapiens) (UniProt Q6ZN16); details: Compound concentration 1000.0 nM
[19] = target: MAP kinase-activated protein kinase 2 (Homo sapiens) (UniProt P49137); details: Compound concentration 1000.0 nM
[20] = target: Hepatocyte growth factor receptor (Homo sapiens) (UniProt P08581); details: Compound concentration 1000.0 nM
[21] = target: Serine/threonine-protein kinase 4 (Homo sapiens) (UniProt Q13043); details: Compound concentration 1000.0 nM
[22] = target: Serine/threonine-protein kinase Nek4 (Homo sapiens) (UniProt P51957); details: Compound concentration 1000.0 nM
[23] = target: Serine/threonine-protein kinase Nek6 (Homo sapiens) (UniProt Q9HC98); details: Compound concentration 1000.0 nM
[24] = target: Serine/threonine-protein kinase Nek7 (Homo sapiens) (UniProt Q8TDX7); details: Compound concentration 1000.0 nM
[25] = target: Serine/threonine-protein kinase Nek9 (Homo sapiens) (UniProt Q8TD19); details: Compound concentration 1000.0 nM
[26] = target: 3-phosphoinositide-dependent protein kinase 1 (Homo sapiens) (UniProt O15530); details: Compound concentration 1000.0 nM
[27] = target: Phosphatidylinositol 4-phosphate 5-kinase type-1 alpha (Homo sapiens) (UniProt Q99755); details: Compound concentration 1000.0 nM
[28] = target: Serine/threonine-protein kinase PknB (Mycobacterium tuberculosis) (UniProt P9WI81); details: Compound concentration 1000.0 nM
[29] = target: Rho-associated protein kinase 1 (Homo sapiens) (UniProt Q13464); details: Compound concentration 1000.0 nM
[30] = target: Ribosomal protein S6 kinase alpha-3 (Homo sapiens) (UniProt P51812); details: Compound concentration 1000.0 nM
[31] = target: Uncharacterized serine/threonine-protein kinase SBK3 (Homo sapiens) (UniProt P0C264); details: Compound concentration 1000.0 nM
[32] = target: SRSF protein kinase 1 (Homo sapiens) (UniProt Q96SB4); details: Compound concentration 1000.0 nM
[33] = target: Angiopoietin-1 receptor (Homo sapiens) (UniProt Q02763); details: Compound concentration 1000.0 nM
[34] = target: Serine/threonine-protein kinase tousled-like 2 (Homo sapiens) (UniProt Q86UE8); details: Compound concentration 1000.0 nM
[35] = target: Serine/threonine-protein kinase VRK2 (Homo sapiens) (UniProt Q86Y07); details: Compound concentration 1000.0 nM
[36] = target: Serine/threonine-protein kinase 32A (Homo sapiens) (UniProt Q8WU08); details: Compound concentration 1000.0 nM
Chain of Serine/threonine-protein kinase 32A (Homo sapiens) (Q8WU08 whole entry): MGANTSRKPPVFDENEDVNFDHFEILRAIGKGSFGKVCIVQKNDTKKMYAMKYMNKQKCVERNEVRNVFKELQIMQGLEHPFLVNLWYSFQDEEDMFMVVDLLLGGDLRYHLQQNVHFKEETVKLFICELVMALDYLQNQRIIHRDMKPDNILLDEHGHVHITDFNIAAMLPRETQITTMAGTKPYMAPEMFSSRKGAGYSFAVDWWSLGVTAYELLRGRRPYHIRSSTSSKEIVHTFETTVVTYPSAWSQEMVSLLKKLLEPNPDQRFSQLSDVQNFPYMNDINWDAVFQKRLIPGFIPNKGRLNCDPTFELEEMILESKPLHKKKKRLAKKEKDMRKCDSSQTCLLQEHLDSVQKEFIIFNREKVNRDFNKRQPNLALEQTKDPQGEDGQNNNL

Chain of Serine/threonine-protein kinase PknB (Mycobacterium tuberculosis) (P9WI81 whole entry): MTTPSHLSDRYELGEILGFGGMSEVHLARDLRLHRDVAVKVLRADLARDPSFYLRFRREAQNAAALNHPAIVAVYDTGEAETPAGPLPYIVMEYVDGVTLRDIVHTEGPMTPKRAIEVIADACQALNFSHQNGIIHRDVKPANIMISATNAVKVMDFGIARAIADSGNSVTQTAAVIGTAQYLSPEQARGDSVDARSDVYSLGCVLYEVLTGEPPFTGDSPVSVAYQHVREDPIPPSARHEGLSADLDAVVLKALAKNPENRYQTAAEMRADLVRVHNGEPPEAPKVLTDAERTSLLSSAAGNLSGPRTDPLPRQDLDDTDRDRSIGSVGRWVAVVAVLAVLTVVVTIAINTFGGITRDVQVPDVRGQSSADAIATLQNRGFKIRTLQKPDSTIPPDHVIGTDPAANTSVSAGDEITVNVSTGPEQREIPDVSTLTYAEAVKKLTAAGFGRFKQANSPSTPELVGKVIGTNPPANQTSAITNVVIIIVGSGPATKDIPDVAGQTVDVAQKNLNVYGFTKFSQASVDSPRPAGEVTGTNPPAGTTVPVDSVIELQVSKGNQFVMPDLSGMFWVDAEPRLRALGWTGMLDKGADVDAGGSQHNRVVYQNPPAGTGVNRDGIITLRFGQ
Chain of Phosphatidylinositol 4-phosphate 5-kinase type-1 alpha (Homo sapiens) (Q99755 whole entry): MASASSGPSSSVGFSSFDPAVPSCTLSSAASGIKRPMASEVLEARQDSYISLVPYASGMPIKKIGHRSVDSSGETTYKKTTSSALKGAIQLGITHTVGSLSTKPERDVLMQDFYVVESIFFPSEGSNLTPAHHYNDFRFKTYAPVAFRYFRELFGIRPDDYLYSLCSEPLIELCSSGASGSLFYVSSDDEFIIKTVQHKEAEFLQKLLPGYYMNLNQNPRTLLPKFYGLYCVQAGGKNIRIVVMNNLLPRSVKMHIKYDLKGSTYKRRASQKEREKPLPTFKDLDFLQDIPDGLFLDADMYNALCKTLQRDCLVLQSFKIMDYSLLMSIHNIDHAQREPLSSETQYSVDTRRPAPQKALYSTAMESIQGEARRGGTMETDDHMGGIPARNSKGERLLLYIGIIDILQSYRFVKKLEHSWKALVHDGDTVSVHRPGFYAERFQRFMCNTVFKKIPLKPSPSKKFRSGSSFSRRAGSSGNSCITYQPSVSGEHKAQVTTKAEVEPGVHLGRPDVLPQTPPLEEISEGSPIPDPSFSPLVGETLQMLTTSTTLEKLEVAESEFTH
Chain of MAP kinase-activated protein kinase 2 (Homo sapiens) (P49137 whole entry, looked up): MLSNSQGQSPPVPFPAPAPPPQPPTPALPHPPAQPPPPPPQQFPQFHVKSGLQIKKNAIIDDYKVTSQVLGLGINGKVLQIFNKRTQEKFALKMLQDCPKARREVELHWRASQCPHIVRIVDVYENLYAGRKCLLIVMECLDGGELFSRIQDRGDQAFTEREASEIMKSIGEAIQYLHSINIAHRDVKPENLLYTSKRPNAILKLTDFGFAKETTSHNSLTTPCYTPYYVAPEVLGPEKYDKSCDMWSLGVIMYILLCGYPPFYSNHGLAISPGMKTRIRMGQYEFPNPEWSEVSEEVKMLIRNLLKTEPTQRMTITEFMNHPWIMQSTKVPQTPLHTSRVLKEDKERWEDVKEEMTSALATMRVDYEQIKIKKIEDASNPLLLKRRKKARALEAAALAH
Chain of Tyrosine-protein kinase Blk (Homo sapiens) (P51451 2-505 limits assumed): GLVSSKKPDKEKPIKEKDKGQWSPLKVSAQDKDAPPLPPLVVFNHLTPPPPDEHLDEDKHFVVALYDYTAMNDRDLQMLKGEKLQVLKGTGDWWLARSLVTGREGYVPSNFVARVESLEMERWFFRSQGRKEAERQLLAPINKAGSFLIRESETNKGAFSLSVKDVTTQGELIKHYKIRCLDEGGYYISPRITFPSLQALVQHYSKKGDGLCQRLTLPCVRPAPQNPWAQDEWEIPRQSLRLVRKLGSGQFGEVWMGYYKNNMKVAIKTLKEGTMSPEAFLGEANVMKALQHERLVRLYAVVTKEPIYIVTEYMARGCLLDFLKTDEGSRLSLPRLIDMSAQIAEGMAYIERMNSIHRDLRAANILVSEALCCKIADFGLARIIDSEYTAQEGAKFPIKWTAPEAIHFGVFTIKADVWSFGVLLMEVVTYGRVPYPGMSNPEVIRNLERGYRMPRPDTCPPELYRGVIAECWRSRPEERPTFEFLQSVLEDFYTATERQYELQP
Chain of Rho-associated protein kinase 1 (Homo sapiens) (Q13464 2-1354 limits assumed): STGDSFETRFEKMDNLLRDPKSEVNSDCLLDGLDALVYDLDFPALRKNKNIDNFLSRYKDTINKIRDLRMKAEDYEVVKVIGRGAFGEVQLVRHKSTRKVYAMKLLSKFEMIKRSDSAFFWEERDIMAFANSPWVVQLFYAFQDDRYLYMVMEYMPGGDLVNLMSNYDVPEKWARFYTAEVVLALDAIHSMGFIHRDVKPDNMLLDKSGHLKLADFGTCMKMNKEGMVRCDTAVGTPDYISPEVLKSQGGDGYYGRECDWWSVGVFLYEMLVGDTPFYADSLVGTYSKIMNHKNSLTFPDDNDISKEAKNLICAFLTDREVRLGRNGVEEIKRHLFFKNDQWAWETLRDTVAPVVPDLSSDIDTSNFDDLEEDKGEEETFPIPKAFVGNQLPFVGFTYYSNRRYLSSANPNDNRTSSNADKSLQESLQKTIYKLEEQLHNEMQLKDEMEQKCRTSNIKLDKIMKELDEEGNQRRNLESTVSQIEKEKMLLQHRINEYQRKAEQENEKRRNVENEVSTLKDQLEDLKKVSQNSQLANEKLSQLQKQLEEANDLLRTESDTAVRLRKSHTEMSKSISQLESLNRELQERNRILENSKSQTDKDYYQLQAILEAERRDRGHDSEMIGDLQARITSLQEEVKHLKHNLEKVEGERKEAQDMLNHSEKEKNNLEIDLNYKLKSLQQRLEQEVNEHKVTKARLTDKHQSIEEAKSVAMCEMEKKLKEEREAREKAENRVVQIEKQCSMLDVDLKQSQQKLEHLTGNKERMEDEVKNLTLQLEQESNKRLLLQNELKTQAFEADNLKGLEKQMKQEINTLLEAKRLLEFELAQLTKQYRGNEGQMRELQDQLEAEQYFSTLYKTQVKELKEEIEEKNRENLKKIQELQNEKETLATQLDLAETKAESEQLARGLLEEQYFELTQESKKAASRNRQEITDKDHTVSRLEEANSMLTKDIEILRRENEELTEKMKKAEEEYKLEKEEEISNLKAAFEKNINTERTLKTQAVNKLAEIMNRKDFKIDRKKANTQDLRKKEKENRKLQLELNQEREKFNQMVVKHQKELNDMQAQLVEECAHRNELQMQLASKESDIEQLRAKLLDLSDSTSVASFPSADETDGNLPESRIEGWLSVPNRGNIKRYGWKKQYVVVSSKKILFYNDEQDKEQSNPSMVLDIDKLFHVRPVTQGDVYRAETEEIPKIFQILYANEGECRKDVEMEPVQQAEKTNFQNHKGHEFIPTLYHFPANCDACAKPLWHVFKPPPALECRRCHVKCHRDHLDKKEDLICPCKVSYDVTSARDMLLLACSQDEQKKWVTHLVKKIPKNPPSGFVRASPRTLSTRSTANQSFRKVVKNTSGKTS
Chain of Serine/threonine-protein kinase Nek7 (Homo sapiens) (Q8TDX7 whole entry, looked up): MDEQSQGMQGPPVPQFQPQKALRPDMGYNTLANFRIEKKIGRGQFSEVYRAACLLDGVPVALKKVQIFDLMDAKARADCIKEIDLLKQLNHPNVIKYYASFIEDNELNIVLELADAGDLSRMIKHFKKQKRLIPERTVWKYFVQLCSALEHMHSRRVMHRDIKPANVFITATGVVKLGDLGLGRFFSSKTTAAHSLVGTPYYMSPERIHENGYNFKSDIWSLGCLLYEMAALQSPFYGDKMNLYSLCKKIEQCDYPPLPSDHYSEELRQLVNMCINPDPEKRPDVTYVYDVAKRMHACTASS
Chain of Serine/threonine-protein kinase tousled-like 2 (Homo sapiens) (Q86UE8 whole entry, looked up): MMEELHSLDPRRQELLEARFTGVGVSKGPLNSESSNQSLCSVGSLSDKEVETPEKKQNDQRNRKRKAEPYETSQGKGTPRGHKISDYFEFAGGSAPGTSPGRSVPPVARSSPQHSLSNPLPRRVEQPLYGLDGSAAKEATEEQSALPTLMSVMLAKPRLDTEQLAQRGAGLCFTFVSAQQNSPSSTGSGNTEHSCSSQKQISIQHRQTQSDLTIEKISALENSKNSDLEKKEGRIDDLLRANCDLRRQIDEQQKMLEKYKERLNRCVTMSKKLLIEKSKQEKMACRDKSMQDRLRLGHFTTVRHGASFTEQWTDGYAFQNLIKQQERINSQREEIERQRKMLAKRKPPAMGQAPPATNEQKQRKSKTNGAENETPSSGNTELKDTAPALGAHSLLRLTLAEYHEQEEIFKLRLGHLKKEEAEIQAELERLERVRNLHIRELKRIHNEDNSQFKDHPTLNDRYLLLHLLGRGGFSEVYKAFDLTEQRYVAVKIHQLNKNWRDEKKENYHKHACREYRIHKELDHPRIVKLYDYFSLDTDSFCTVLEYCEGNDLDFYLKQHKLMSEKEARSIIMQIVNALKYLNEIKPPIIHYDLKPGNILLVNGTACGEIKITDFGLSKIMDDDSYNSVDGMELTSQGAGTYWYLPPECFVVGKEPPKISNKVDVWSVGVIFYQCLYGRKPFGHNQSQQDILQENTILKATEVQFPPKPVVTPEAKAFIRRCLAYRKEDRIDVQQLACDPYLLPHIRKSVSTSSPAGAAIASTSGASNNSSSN

## C[C@H](c1ccc(F)cc1)N(Cc1cccc(C(=O)O)c1)C(=O)c1cnc2ccccc2c1 [PF-05105679]
[1]
  IC50: 29.6 nM (active)
[2]
  residual activity: 89%
[3]
  residual activity: 94%
[4]
  residual activity: 81%
[5]
  residual activity: 100%
[6]
  residual activity: 88%
[7]
  residual activity: 100%
[8]
  residual activity: 100%
[9]
  residual activity: 100%
[10]
  residual activity: 100%
[11]
  residual activity: 91%
[12]
  residual activity: 78%
[13]
  residual activity: 100%
[14]
  residual activity: 91%
[15]
  residual activity: 98%
[16]
  residual activity: 100%
[17]
  residual activity: 89%
[18]
  residual activity: 100%
[19]
  residual activity: 85%
[20]
  residual activity: 100%
[21]
  residual activity: 92%
[22]
  residual activity: 100%
[23]
  residual activity: 92%
[24]
  residual activity: 100%
[25]
  residual activity: 100%
[26]
  residual activity: 100%
[27]
  residual activity: 100%
[28]
  residual activity: 94%
[29]
  residual activity: 100%
[30]
  residual activity: 89%
[31]
  residual activity: 100%
[32]
  residual activity: 95%
[33]
  residual activity: 98%
[34]
  residual activity: 97%
[35]
  residual activity: 100%
[36]
  residual activity: 100%
